# Assay results published in patent US11135310B2, “Gold porphyrin-PEG conjugates and methods of use” (The University of Hong Kong, priority 2015, dated 2021).
# Read-outs that look alike come from different tables or passages of the source.
# How the values were obtained:
# [1] = system: MIHA; assay: In vitro cytotoxicity, MTT assay
# [2] = system: NCI-H460; assay: In vitro cytotoxicity, MTT assay; type: cell-based, human; conditions: for IC50: MTT assay, 72 h incubation
# [3] = system: A2780adr; conditions: for IC50: MTT assay, 72 h incubation
# [4] = system: non-tumorigenic cells; assay: In vitro cytotoxicity, MTT assay, non-tumorigenic cells; type: cell-based; conditions: 72 h
# [5] = system: HeLa; assay: In vitro cytotoxicity, MTT assay; type: cell-based, human
# Source text: Therefore, it was anticipated that a not too high loading of DOX into nanostructures of 1 could be used for anti-cancer purposes in order to maintain low toxicity toward non-tumorigenic cells. Together with the higher encapsulation efficiency of DOX, NC1 was selected for investigations of the in vitro cytotoxicity. […] The in vitro cytotoxicity of NC1 was also compared to that of the mixture of nanostructures of 1 and DOX. […] The observed cytotoxicity was further evaluated by the combination index (CI), which can describe the effect of drug combination. […] It is shown that dose and effect are interchangeable via defined parameters. This general equation for the single drug effect has been extended to the multiple drug effect equation for n drugs. These equations provide the theoretical basis for the combination index (CI)-isobologram equation that allows quantitative determination of drug interactions, where CI<1, =1, and >1 indicate synergism, additive effect, and antagonism, respectively. [Chou, et al. Pharmacol. Rev. 2006, 58, 621] […] The synergistic effect can originate from different molecular targets and/or mechanism of action of DOX from that of gold(III) porphyrin complexes. […] These different modes of action would allow supra-additive effect on killing HeLa cells by the co-delivery.
# [6] = system: CCD-19Lu; assay: In vitro cytotoxicity, MTT assay; type: cell-based; conditions: 72 h incubation
# [7] = system: HCT116; assay: In vitro cytotoxicity, MTT assay; type: cell-based, human; conditions: for IC50: HCT116, MTT assay, 72 h incubation
# [8] = system: NCM460; assay: In vitro cytotoxicity, MTT assay; type: cell-based, human; conditions: 72 h incubation
# [9] = system: A2780; assay: In vitro cytotoxicity, MTT assay; type: cell-based, human; conditions: for IC50: MTT assay, 72 h incubation
# [10] = system: A2780cis; assay: In vitro cytotoxicity, MTT assay; type: cell-based, human; conditions: for IC50: MTT assay, 72 h incubation
# [11] = system: A2780adr cells; assay: Cellular uptake of DOX, cell lysates by UPLC-QTOF-MS; type: cell-based, human; conditions: for Uptake of DOX by A2780adr cells: [DOX]=0.5 μM
# [12] = system: A2780adr; assay: cells; conditions: Homo sapiens, A2780 ADR, 72 h
# [13] = system: HCT116 cells; assay: Induction of apoptosis, CellEvent Caspase-3/7 Green (microscopy and flow cytometry); type: cell-based, human; conditions: NC1 ([1]=3.5 μM and [DOX]=0.5 μM) or DOX alone
# [14] = MIHA, MTT assay, 72 h incubation
# [15] = MTT assay, 72 h incubation, read-out: IC50
# [16] = IC50 of MIHA cells/IC50 of cancer cells
# [17] = IC50 of NCM460 cells/IC50 of cancer cells
smiles,measurement,setting,value
O=C(O)CCCCCCCCC(=O)Oc1ccc(-c2c3nc(c(-c4ccccc4)c4ccc([n-]4)c(-c4ccccc4)c4nc(c(-c5ccccc5)c5ccc2[n-]5)C=C4)C=C3)cc1.[Au+3].[Cl-] [A10],IC50,[1]; [14],0.61 ± 0.05 µM
same,IC50,[2],0.18 ± 0.004 µM
same,IC50,[3]; A2780adr,0.52 ± 0.06 µM
same,IC50 for non-tumorigenic cells,[4],submicromolar range
same,IC50,[5]; [15],0.41 ± 0.05 µM
"N.N.[Cl][Pt][Cl] [Cisplatin, cisplatin, reference compound]",IC50,[6],49.1 ± 5.4 µM
same,IC50,[1]; [14],17.6 ± 1.3 µM
same,IC50,[7],15.7 ± 2.2 µM
same,IC50,[2],65.4 ± 5 µM
same,IC50,[3]; A2780adr,12.7 ± 1.9 µM
same,Resistance found in A2780adr,[3]; Determined by IC50 of A2780adr cells/IC50 of A2780 cells,0.20
same,IC50,[8],12.3 ± 0.9 µM
same,IC50,[9],2.6 ± 0.3 µM
same,IC50,[10]; A2780cis,8.4 ± 0.05 µM
same,Resistance found in A2780cis,[10]; Determined by IC50 of A2780cis cells/IC50 of A2780 cells,0.31
same,IC50,[5]; [15],19.8 ± 1.4 µM
"COc1cccc2c1C(=O)c1c(O)c3c(c(O)c1C2=O)C[C@@](O)(C(=O)CO)C[C@@H]3O[C@H]1C[C@H](N)[C@H](O)[C@H](C)O1 [DOX, doxorubicin]",DOX uptake smaller than after incubation of NC1,[11]; 14 h,1.8 fold
same,DOX uptake smaller than after incubation of NC1,[11]; 24 h,3.0 fold
same,Uptake of DOX by A2780adr cells,[11]; incubation 14 h,33.9 μg per g of proteins
same,Uptake of DOX by A2780adr cells,[11]; incubation 24 h,27.8 μg per g of proteins
same,IC50,[12],0.68 ± 0.05 µM
same,IC50,[12]; read-out: DOX at IC50,0.7 µM
same,IC50,[12]; read-out: Total dose at IC50,0.7 µM
same,IC50,[1]; 72 h,0.1 ± 0.01 µM
same,IC50,"[1]; 72 h, read-out: DOX at IC50",0.1 µM
same,IC50,"[1]; 72 h, read-out: Total dose at IC50",0.1 µM
same,Toxicity (of DOX) toward cancer cells compared to that toward MIHA cells,"[7]; HCT-116, IC50 of MIHA cells/IC50 of cancer cells",0.7
same,Toxicity (of DOX) toward cancer cells compared to that toward NCM460 cells,"[7]; HCT-116, IC50 of NCM460 cells/IC50 of cancer cells",7.1
same,IC50,"[7]; Homo sapiens, HCT-116",0.14 ± 0.02 µM
same,IC50,[2]; Homo sapiens,0.036 ± 0.01 µM
same,Toxicity (of DOX) toward cancer cells compared to that toward MIHA cells,[2]; [16],2.8
same,Toxicity (of DOX) toward cancer cells compared to that toward NCM460 cells,[2]; [17],27.8
same,Toxicity (of DOX) toward cancer cells compared to that toward MIHA cells,"[3]; A2780adr, IC50 of MIHA cells/IC50 of cancer cells",0.1
same,Toxicity (of DOX) toward cancer cells compared to that toward NCM460 cells,"[3]; A2780adr, IC50 of NCM460 cells/IC50 of cancer cells",1.5
same,Lower cytotoxicity toward A2780adr cells than non-resistant A2780 cells,[3]; from IC50 of Table 1,15 fold
same,Incubation time for induction of apoptosis of HCT116 cells,[13],30 h
same,IC50,[9]; Homo sapiens,0.045 ± 0.007 µM
same,Toxicity (of DOX) toward cancer cells compared to that toward MIHA cells,[9]; [16],2.2
same,Toxicity (of DOX) toward cancer cells compared to that toward NCM460 cells,[9]; [17],22.2
same,Toxicity (of DOX) toward cancer cells compared to that toward MIHA cells,"[10]; A2780cis, IC50 of MIHA cells/IC50 of cancer cells",1.9
same,Toxicity (of DOX) toward cancer cells compared to that toward NCM460 cells,"[10]; A2780cis, IC50 of NCM460 cells/IC50 of cancer cells",18.5
same,IC50,"[10]; Homo sapiens, A2780cis",0.054 ± 0.005 µM
same,IC50,"[5]; Homo sapiens, 72 h, read-out: DOX at IC50",0.57 µM
same,IC50,"[5]; Homo sapiens, 72 h, read-out: Total dose at IC50",0.57 µM
same,IC50,"[5]; Homo sapiens, MTT assay, 72 h incubation, read-out: IC50",0.57 ± 0.06 µM
same,Toxicity (of DOX) toward cancer cells compared to that toward MIHA cells,"[5]; IC50 of MIHA cells/IC50 of cancer cells, cytotoxicity of 1 in NC1 not considered",0.2
same,Toxicity (of DOX) toward cancer cells compared to that toward NCM460 cells,"[5]; IC50 of NCM460 cells/IC50 of cancer cells, cytotoxicity of 1 in NC1 not considered",1.8
